Data on 9 molecules can be found in ChEMBL document CHEMBL3763150, “New antibacterial isocoumarin glycosides from a wetland soil derived fungal strain Metarhizium anisopliae” (2016).

Converted amounts (≈) assume the structure as drawn. The source made the active and inactive calls. No cut-off for these calls is given here. Where only a bound is given, the exact number is not on record here.

Experiment [1] has as its system Pseudomonas aeruginosa. Put plainly: Antibacterial activity against clinical isolates of Pseudomonas aeruginosa PAOA incubated for 20 hrs by two fold dilution method. The format is functional.
The subject of experiment [2] is Pseudomonas aeruginosa. Put plainly: Antibiofilm activity against clinical isolates of Pseudomonas aeruginosa PAOA at 16 to 64 ug/ml incubated for 20 hrs by crystal violet staining based spectrophotometric analysis. It counts as functional, organism-based.
The subject of experiment [3] is Pseudomonas aeruginosa. Put plainly: Antibacterial activity against clinical isolates of Pseudomonas aeruginosa PAOA assessed as inhibition of pyocyanine secretion at 64 ug/ml. The format is functional, organism-based.
Experiment [4] concerns Pseudomonas aeruginosa. Put plainly: Antibacterial activity against clinical isolates of Pseudomonas aeruginosa PAOA assessed as inhibition of rhamnolipid secretion at 64 ug/ml. It counts as functional, organism-based.
The subject of experiment [5] is Pseudomonas aeruginosa. The experiment in a line: Antibacterial activity against clinical isolates of Pseudomonas aeruginosa PAOA assessed as inhibition of rhamnolipid secretion at 32 ug/ml. The format is functional, organism-based.

The MIC is the least concentration at which growth counts as inhibited. Lower therefore signals a more susceptible organism. Consider `C/C=C/C=C/[C@H]1Cc2cc(O[C@@H]3O[C@H](CO)[C@@H](OC)[C@H](O)[C@H]3O)c(OC)c(O)c2C(=O)O1`, for which the MIC in experiment [1] was more than 128 µg/mL.
In experiment [1], `C/C=C/CC[C@H]1Cc2cc(O[C@@H]3O[C@H](COC(C)=O)[C@@H](OC)[C@H](O)[C@H]3O)c(OC)c(O)c2C(=O)O1` showed an MIC of more than 128 µg/mL. Also, in experiment [2], the result was Active. The inhibition result in experiment [3], in experiment [4] and in experiment [5] was “Active” in each case.
In experiment [1], `C/C=C/CC[C@H]1Cc2cc(O[C@@H]3O[C@H](CO)[C@@H](OC)[C@H](O)[C@H]3O)c(OC)c(O)c2C(=O)O1` displayed a minimum inhibitory concentration (MIC) of more than 128 µg/mL.
`C/C=C/CC[C@H]1Cc2cc(O)c(O[C@@H]3O[C@H](CO)[C@@H](OC)[C@H](O)[C@H]3O)c(O)c2C(=O)O1` yielded a minimal inhibitory concentration (MIC) in experiment [1] of more than 128 µg/mL.
Still for that read-out and setting: in the case of `C/C=C/CCc1cc2cc(O[C@@H]3O[C@H](CO)[C@@H](OC)[C@H](O)[C@H]3O)c(OC)c(O)c2c(=O)o1` it was more than 128 µg/mL.
`C/C=C/CC[C@H]1Cc2cc(O[C@@H]3O[C@H](CO)[C@@H](OC)[C@H](O)[C@H]3O)cc(O)c2C(=O)O1` displayed an MIC in experiment [1] of more than 128 µg/mL.
For `O=C1C=C(Br)/C(=C/Br)O1`, the minimal inhibitory concentration (MIC) in experiment [1] was 128 µg/mL (≈ 504 µM). Also, the outcome in experiment [2] was Active. Besides, the inhibition entry in experiment [5] is “Active”.
In the case of `C/C=C/CC[C@H]1Cc2c(O)c(O[C@@H]3O[C@H](CO)[C@@H](OC)[C@H](O)[C@H]3O)cc(O)c2C(=O)O1`, the MIC in experiment [1] is more than 128 µg/mL.
On to `C/C=C/C=C/[C@H]1Cc2cc(O[C@@H]3O[C@H](CO)[C@@H](OC)[C@H](O)[C@H]3O)cc(O)c2C(=O)O1`, for which the MIC in experiment [1] was more than 128 µg/mL.
